Measured values as given in ChEMBL document CHEMBL3301361, “Experimental in vitro DMPK and physicochemical data on a set of publicly disclosed compounds”.

experiment: physchem; details: octan-1-ol/water, pH 7.4

Row | SMILES | logD
1 | Nc1ccccc1[N+](=O)[O-] [2-NITROANILINE] | -0.96
2 | O=C1C(=O)c2ccccc2-c2ccccc21 [9,10-PHENANTHRENEQUINONE] | 2.6
3 | CCN(CC)C(=O)c1ccc(C2=CC3(CCNCC3)Oc3ccccc32)c(O)c1 [ADL-5747 FREE BASE] | 0.77
4 | CCN(CC)C(=O)c1ccc(C2=CC3(CCNCC3)Oc3cccc(O)c32)cc1 [ADL-5859] | 0.54
5 | Oc1ncnc2[nH]ncc12 [ALLOPURINOL] | -0.42
6 | CCC1(c2ccc(N)cc2)CCC(=O)NC1=O (stereo not drawn) [AMINOGLUTETHIMIDE] | 0.6
7 | Clc1ccc([C@]23CNC[C@H]2C3)cc1Cl [AMITIFADINE] | 1.96
8 | CC(C)(C)OC(=O)c1ncn2c1[C@@H]1CCCN1C(=O)c1c(Br)cccc1-2 [BRETAZENIL] | 2.48
9 | C=CCC1(CC(C)C)C(=O)NC(=O)NC1=O [BUTALBITAL] | 1.48
10 | CCCCC1(CC)C(=O)NC(=O)NC1=O [BUTETHAL] | 1.5
11 | CC(N)Cc1c[nH]c2ccc(OCc3cccs3)cc12 (stereo not drawn) [BW-723C86] | 0.48

same assay, conditions: octan-1-ol/water, pH 7.4, LogD7.4

Row | SMILES | logD
12 | CN(C)CC(O)COc1ccc(Nc2nccc(Nc3ccccc3)n2)cc1 (stereo not drawn) | 1.58
13 | CC(C)C(NC(=O)Cn1c(-c2ccccc2)ccc(NS(C)(=O)=O)c1=O)C(=O)C(F)(F)F (stereo not drawn) | 1.77
14 | CC(C)CC(c1ccncc1)n1[nH]c(=O)c2nc3cc(Cl)ccc3c(O)c2c1=O (stereo not drawn) | 1.64
15 | Cc1cc(C)cc(-c2c(O)nc3cc(Cl)c(C(=O)Nc4ccncn4)cc3c2OCCC2CCCCN2)c1 (stereo not drawn) | 1.7
16 | C[C@H](N)C(=O)N[C@H](/C=C/S(=O)(=O)c1ccccc1)CCc1ccccc1 | 1.66
17 | O=C1Nc2ccccc2C1(O)c1ccccc1 (stereo not drawn) | 1.71
18 | CC(C)C(=O)Nc1ccc2c(c1)C(=O)NC2=O | 1.55
19 | COC(Cn1c(=O)[nH]c2c(=O)n(CC(=O)NC(C(=O)C(F)(F)F)C(C)C)c(-c3ccccc3)cc2c1=O)OC (stereo not drawn) | 1.56
20 | CC(C)C(NC(=O)Cn1c(-c2ccccc2)ccc(N)c1=O)C(=O)C(F)(F)F (stereo not drawn) | 1.74
21 | CN(C)c1ccnc2sc(C(N)=O)c(N)c12 | 1.7
22 | Cc1oc(-c2ccc(Cl)cc2)cc1C(=O)O | 1.67
23 | Nc1nccc(-c2cccs2)n1 | 1.75
24 | OC(c1ccccc1)c1cccnc1 (stereo not drawn) | 1.72
25 | CC(=O)NC[C@H]1CN(c2ccc(-n3ccc(C#N)c3)c(F)c2)C(=O)O1 | 1.6
26 | O=S(=O)(Nc1cccc2[nH]ncc12)c1cccs1 | 1.7
27 | Nc1nc2ccccc2n1C(=O)c1ccccc1 | 1.56
28 | CC(=O)N1CCN(CC(O)COc2ccc(Br)cc2)CC1 (stereo not drawn) | 1.6
29 | Clc1ccc(C2=CSC3=NCCN23)cc1Cl | 1.54
30 | Nc1c(C(=O)NC2CC2)nnc2c(-c3ncccn3)cccc12 | 1.5
31 | CC(=O)NCc1ccc(CN2CCN(c3ccccc3)CC2)cc1 | 1.78
32 | COc1ccc(C(CNC(=O)Nc2ccccc2)N2CCN(C)CC2)cc1 (stereo not drawn) | 1.5
33 | COCCNCc1cncc(-c2ccc(F)cc2OC)n1 | 1.61
34 | COc1cc(F)ccc1-c1cc(CNC2CCCC2)ccn1 | 1.71
35 | COc1ccc2nc(C)cc(-n3cc(CNC(C)=O)nn3)c2c1 | 1.6
36 | C[C@H]1O[C@@H](n2cnc3c(N)nc(OC4CC5CC5C4)nc32)[C@H](O)[C@@H]1O (stereo partly drawn) | 1.66

Row | SMILES | logD
37 | CCC(c1nc2ccsc2c(=O)n1Cc1ccc(C)cc1)N(CCCN)C(=O)c1ccc(C)cc1 (stereo not drawn) | 1.69
38 | CCC(c1nc2ccn(C)c2c(=O)n1Cc1ccccc1)N(CCCN)C(=O)c1ccc(C)cc1 (stereo not drawn) | 1.8
39 | CCC(c1nc2snc(C)c2c(=O)n1Cc1ccccc1)N(CCCN)C(=O)c1ccc(C)cc1 (stereo not drawn) | 1.61
40 | Cc1ccc(NC(=O)c2ccnc(N3CCOCC3)c2)cc1Nc1ccnc(OC2CCN(C)CC2)n1 | 1.8
41 | CCC(CC)NC(=O)c1cnn(Cc2ccccc2)c1NS(=O)(=O)c1ccc(C)cc1 | 1.52
42 | COc1ccc2c(C)cc(=O)n(CCN3CCC(NCc4cc5c(cn4)OCCO5)CC3)c2c1 | 1.72
43 | Cc1[nH]c(C(=O)NC2CCN(c3cc(C(=O)O)cc(Cl)n3)CC2)c(Cl)c1Cl | 1.74
44 | C[C@H]1O[C@@H](n2cnc3c(N)nc(OCC4CCC(F)(F)CC4)nc32)[C@H](O)[C@@H]1O | 1.72
45 | Nc1n[nH]c2c(Cl)cccc12 | 1.7
46 | COc1ccc(-c2nc3c(NCCCNC(=O)C4CC4)c(Br)cnc3[nH]2)cc1 | 1.71
47 | COc1ccc(-c2cc(=O)[nH]c(N)n2)cc1 | 1.52
48 | O=c1c2ccc(O)cc2ncn1-c1ccc(O)cc1 | 1.6
49 | CC(C)Cn1c(=O)n(C)c(=O)c2c(C(=O)N3CC[C@@H](O)C3)c(Cc3ccnc4ccccc34)sc21 | 1.65
50 | CC(C)Cn1c(=O)n(C)c(=O)c2c(C(=O)N3CC[C@@H](O)C3)c(Cc3cncc4ccccc34)sc21 | 1.74
51 | Nc1ccc2c(c1)C(=O)C(=O)c1cc(N)ccc1-2 | 1.72
52 | Cc1ccc2c(c1)c(-c1ccnc3cc(C(F)(F)F)ccc13)c(C)n2CC(=O)O | 1.78
53 | c1ccc2c(c1)nnn2-c1ccncc1 | 1.69
54 | CCCSc1ncccc1C(=O)N(C)C1CCOCC1 | 1.63
55 | CCCSc1nc(N2CCCC(C(=O)O)C2)ccc1C(=O)NC1CCCCC1 (stereo not drawn) | 1.72
56 | O=C(O)C(c1ccccc1)N1CCO[C@@H](CN2CCC(Oc3ccc(Cl)c(Cl)c3)CC2)C1 (stereo partly drawn) | 1.71
57 | O=C(O)c1ccccc1C(=O)N1CCC(N2CCC(Oc3ccc(Cl)c(Cl)c3)CC2)CC1 | 1.73
58 | Cc1ccc(S(=O)(=O)NC(=O)N2CCC(N3CCC(Oc4ccc(Cl)cc4)CC3)CC2)cc1 | 1.6
59 | CC1=NC(C)(c2cccc(-c3cccnc3)c2)N=C1N (stereo not drawn) | 1.7
60 | CNc1nc2ccccc2n1Cc1sc2c(c1C(=O)N1C[C@H](O)CO1)c(=O)n(C)c(=O)n2CC(C)C | 1.77
61 | C1=CCC(c2ccc3ccccc3c2)CNC1 (stereo not drawn) | 1.64

Row | SMILES | logD
62 | COc1ccc(C(C)NC(=O)C2(N)CCN(c3ncnc4[nH]ccc34)CC2)cc1OC (stereo not drawn) | 1.8
63 | CN(C)C(=O)c1ccc(CN2CCc3cc4nc(N)sc4cc3CC2)cc1 | 1.72
64 | C[C@@H](NC(=O)[C@H]1CCCNC1)c1ccc(Nc2ncc3cc(-c4ccncc4)ccc3n2)cc1 | 1.69
65 | CCCCCc1cc(=O)[nH]c(N)n1 | 1.62
66 | COc1ccccc1CNC(=O)c1ccc2cnccc2n1 | 1.8
67 | Cn1c(=N)n(CC(=O)c2ccc(Cl)cc2)c2ccccc21 | 1.63
68 | CNC(=O)c1cccc(S(=O)(=O)Nc2ncc(C)nc2OC)c1-c1ccc(CC(C)C)cc1 | 1.68
69 | O=C(Nc1cc(C(F)(F)F)cc(C(F)(F)F)c1)c1cnc(Cl)nc1C(F)(F)F | 1.8
70 | NC(=O)c1ccc(Br)cc1 | 1.75
71 | COc1cc2c(Nc3c(Cl)ccc4c3OCO4)ncnc2cc1OCCCN1CCCC1 | 1.62
72 | O=C(NCC12CC3CC(CC(C3)C1)C2)c1cc(C2CCNCC2)ccc1Cl | 1.58
73 | CC1(c2ccc(Cl)c(Cl)c2)CC(=O)NC(N)=N1 (stereo not drawn) | 1.59
74 | O=C(O)c1ccc(Nc2ncc(Br)c(Nc3ccccc3)n2)cc1 | 1.65
75 | CC(=O)Nc1ccc(-c2ccccc2)n(CC(=O)NC(C(=O)C(F)(F)F)C(C)C)c1=O (stereo not drawn) | 1.78
76 | CC(=O)NC[C@H]1CN(c2ccc(-n3cnc(C#N)c3)c(F)c2)C(=O)O1 | 1.51
77 | Clc1ccc(C2(c3ccc(-c4cn[nH]c4)cc3)CCNCC2)cc1 | 1.51
78 | Oc1c2ncc3ccccc3c2nn1-c1ccc(Cl)cc1 | 1.52
79 | COc1cc2c(Nc3ccc(F)cc3F)c(C(N)=O)cnc2cc1NCCN(C)C | 1.71
80 | COc1cc2c(Nc3ccc(F)cc3F)c(C(N)=O)cnc2cc1N1CCN(C)CC1 | 1.75
81 | COC(=O)COc1ccc(OCCNCC(O)COc2ccccc2)cc1 (stereo not drawn) | 1.54
82 | O=C(c1cc2cc(Cl)ccc2[nH]1)N1CCNCC1 | 1.65
83 | NC(=O)Nc1sc(-c2ccc(F)cc2)cc1C(=O)N[C@H]1CCCNC1 | 1.76
84 | CC(C)CCCC(C)/N=c1\ccn(Cc2ccccc2)c2cc(Cl)ccc12 (stereo not drawn) | 1.58
85 | COc1nc(Cl)cnc1NS(=O)(=O)c1cccc2c(N(C)C)cccc12 | 1.74
86 | Nc1nc(N)c2cc(Br)ccc2n1 | 1.78

Row | SMILES | logD
87 | c1ccc(-c2ccc3ccccc3n2)cc1 [2-PHENYLQUINOLINE] | 4
88 | Nc1ncnc2ccccc12 [4-AMINOQUINAZOLINE] | 1.26
89 | O=c1cc(-c2ccccc2)oc2ccc(O)cc12 [6-HYDROXYFLAVONE] | 3.6
90 | CC(=O)c1ccc(S(=O)(=O)NC(=O)NC2CCCCC2)cc1 [ACETOHEXAMIDE] | -0.49
91 | Cc1c(CN(C)C(=O)/C=C/c2cnc3c(c2)CCC(=O)N3)oc2ccccc12 [AFN-1252] | 2.36
92 | Cn1ncc(Cl)c1-c1cc(C(=O)N[C@H](CN)Cc2cccc(F)c2)sc1Cl [AFURESERTIB] | 2.99
93 | CN(C)c1nc(N(C)C)nc(N(C)C)n1 [ALTRETAMINE] | 2.44
94 | CC(C)c1ccc2oc3nc(N)c(C(=O)O)cc3c(=O)c2c1 [AMLEXANOX] | 1.1
95 | CCO/N=C(\c1ccc(Br)cc1)C1CCN(C2(C)CCN(C(=O)c3c(C)cc[n+]([O-])c3C)CC2)CC1 [ANCRIVIROC] | 2.14
96 | CNCC[C@@H](Oc1ccccc1C)c1ccccc1 [ATOMOXETINE] | 1.2
97 | Cn1cnc([N+](=O)[O-])c1Sc1ncnc2nc[nH]c12 [AZATHIOPRINE] | 0.19
98 | CN1CCCC(n2nc(Cc3ccc(Cl)cc3)c3ccccc3c2=O)CC1 (stereo not drawn) [AZELASTINE] | 2.46
99 | CCCN1CCN(c2ccc(C(=O)NC3(C(=O)NCC#N)CCCCC3)cc2)CC1 [BALICATIB] | 1.33
100 | NS(=O)(=O)c1cc2c(cc1C(F)(F)F)NC(Cc1ccccc1)NS2(=O)=O (stereo not drawn) [BENDROFLUMETHIAZIDE] | 1.78
101 | CCOC(=O)c1ccc(N)cc1 [BENZOCAINE] | 1.83
102 | CC(C)COCC(CN(Cc1ccccc1)c1ccccc1)N1CCCC1 (stereo not drawn) [BEPRIDIL] | 3.66
103 | COc1ccc(-c2coc3cc(OC)cc(OC)c3c2=O)cc1 [BIOCHANIN A, DIMETHYL ETHER] | 3.05
104 | COc1ccc(-c2coc3cc(O)cc(O)c3c2=O)cc1 [BIOCHANIN] | 3.5
105 | OC(CCN1CCCCC1)(c1ccccc1)C1CC2C=CC1C2 (stereo not drawn) [BIPERIDEN] | 2.49
106 | C[C@H](Oc1ccc(S(C)(=O)=O)cc1C(=O)N1CCN(c2ncc(C(F)(F)F)cc2F)CC1)C(F)(F)F [BITOPERTIN] | 3.49
107 | CCN(CC)CCNC(=O)c1cc(Br)c(N)cc1OC [BROMOPRIDE] | 0.54
108 | CCCCN(CCCC)CCCOC(=O)c1ccc(N)cc1 [BUTACAINE] | 1.93
